{"source": "paper PMC4138103", "about": "(PLoS ONE, 2014)", "tested_on": "Sprague-Dawley rats", "assay": "Bone geometry and densitometry (pQCT of tibia)", "format": "in vivo, Rattus norvegicus", "design": "key to Dose response: Densitometry, diaphysis, Cortical area / Dose response: Densitometry, metaphysis, Trabecular area: D: significant dose response (for results, see Table 2); T: significant trend", "conditions": "tibia", "protocol": "Hind limbs were collected and frozen at −20°C. Dissected right tibias were cleaned from soft tissue and stored in Ringer solution at −20°C until analysis. The length of each bone was measured using an electronic sliding caliper to the nearest 0.01 mm (IP65, Sylvac SA, Crissier, Switzerland). […] The thresholds for defining trabecular bone were 280 and 400 mg/cm^3, while cortical bone was defined above a threshold of 710 mg/cm^3. The voxel size was 0.07 mm.\nData were also analyzed using the BMD method, which is based on dose-response modeling of the full data set using a nested family of exponential and Hill models. The analyses were done on data of males and females combined, using sex as a covariate. […] In that case, different Critical Effect Doses (CEDs) and CEDs at the lowest bound of the confidence interval (CED-L) were generated for each sex. If no difference between sexes is detected, a CED and CED-Ls for the combined data is generated. However, this was also done if the curve fits are close, and separate analyses for males and females were then performed manually. CEDs and CED-Ls were calculated at the predefined Critical Effect Size (CES) of 5% (EFSA standard) or 10%.", "key": {"[1]": {"conditions": "females, total dose 1000 mg/kg bw"}, "[2]": {"conditions": "females, total dose 1700 mg/kg bw"}, "[3]": {"conditions": "males, total dose 1000 mg/kg bw"}, "[4]": {"conditions": "males, total dose 1700 mg/kg bw"}}, "data": [{"smiles": "Clc1cc(Cl)c(-c2cc(Cl)c(Cl)c(Cl)c2Cl)cc1Cl", "note": "[PCB 180, 2,2′,3′,4,4′,5,5′-heptachlorobiphenyl]", "values": [{"measurement": "Densitometry, metaphysis: Trabecular area", "setting": "[1]", "result": 5.41, "unit": "mm2"}, {"measurement": "Densitometry, metaphysis: Trabecular density", "setting": "[1]", "result": 209, "unit": "mg/cm3"}, {"measurement": "Densitometry, diaphysis: Cortical area", "setting": "[2]", "result": 3.10, "unit": "mm2"}, {"measurement": "Densitometry, diaphysis: Cortical density", "setting": "[2]", "result": 1307, "unit": "mg/cm3"}, {"measurement": "Densitometry, diaphysis: Cortical thickness", "setting": "[2]", "result": 0.48, "unit": "mm"}, {"measurement": "Densitometry, diaphysis: Endosteal circumference", "setting": "[2]", "result": 5.01, "unit": "mm"}, {"measurement": "Densitometry, diaphysis: Periosteal circumference", "setting": "[2]", "result": 8.00, "unit": "mm"}, {"measurement": "Densitometry, metaphysis: Total density", "setting": "[2]", "result": 562, "unit": "mg/cm3"}, {"measurement": "Densitometry, metaphysis: Trabecular area", "setting": "[2]", "result": 5.84, "unit": "mm2"}, {"measurement": "Densitometry, metaphysis: Trabecular density", "setting": "[2]", "result": 221, "unit": "mg/cm3"}, {"measurement": "Dose response: Densitometry, metaphysis, Trabecular area", "setting": "females, total doses 0-1700 mg/kg bw", "result": "D"}, {"measurement": "Densitometry, diaphysis: Cortical area", "setting": "males, total dose 3 mg/kg bw", "result": 4.04, "unit": "mm2"}, {"measurement": "Densitometry, diaphysis: Cortical density", "setting": "males, total dose 3 mg/kg bw", "result": 1321, "unit": "mg/cm3"}, {"measurement": "Densitometry, diaphysis: Cortical thickness", "setting": "males, total dose 3 mg/kg bw", "result": 0.56, "unit": "mm"}, {"measurement": "Densitometry, diaphysis: Endosteal circumference", "setting": "males, total dose 3 mg/kg bw", "result": 5.47, "unit": "mm"}, {"measurement": "Densitometry, diaphysis: Periosteal circumference", "setting": "males, total dose 3 mg/kg bw", "result": 8.98, "unit": "mm"}, {"measurement": "Densitometry, metaphysis: Total density", "setting": "males, total dose 3 mg/kg bw", "result": 493, "unit": "mg/cm3"}, {"measurement": "Densitometry, metaphysis: Trabecular area", "setting": "males, total dose 3 mg/kg bw", "result": 8.42, "unit": "mm2"}, {"measurement": "Densitometry, metaphysis: Trabecular density", "setting": "males, total dose 3 mg/kg bw", "result": 174, "unit": "mg/cm3"}, {"measurement": "Densitometry, diaphysis: Cortical area", "setting": "males, total dose 10 mg/kg bw", "result": 3.95, "unit": "mm2"}, {"measurement": "Densitometry, diaphysis: Cortical density", "setting": "males, total dose 10 mg/kg bw", "result": 1314, "unit": "mg/cm3"}, {"measurement": "Densitometry, diaphysis: Cortical thickness", "setting": "males, total dose 10 mg/kg bw", "result": 0.54, "unit": "mm"}, {"measurement": "Densitometry, diaphysis: Endosteal circumference", "setting": "males, total dose 10 mg/kg bw", "result": 5.55, "unit": "mm"}, {"measurement": "Densitometry, diaphysis: Periosteal circumference", "setting": "males, total dose 10 mg/kg bw", "result": 8.97, "unit": "mm"}, {"measurement": "Densitometry, metaphysis: Total density", "setting": "males, total dose 10 mg/kg bw", "result": 465, "unit": "mg/cm3"}, {"measurement": "Densitometry, metaphysis: Trabecular area", "setting": "males, total dose 10 mg/kg bw", "result": 8.96, "unit": "mm2"}, {"measurement": "Densitometry, metaphysis: Trabecular density", "setting": "males, total dose 10 mg/kg bw", "result": 139, "unit": "mg/cm3"}, {"measurement": "Densitometry, diaphysis: Cortical area", "setting": "males, total dose 30 mg/kg bw", "result": 4.08, "unit": "mm2"}, {"measurement": "Densitometry, diaphysis: Cortical density", "setting": "males, total dose 30 mg/kg bw", "result": 1316, "unit": "mg/cm3"}, {"measurement": "Densitometry, diaphysis: Cortical thickness", "setting": "males, total dose 30 mg/kg bw", "result": 0.56, "unit": "mm"}, {"measurement": "Densitometry, diaphysis: Endosteal circumference", "setting": "males, total dose 30 mg/kg bw", "result": 5.58, "unit": "mm"}, {"measurement": "Densitometry, diaphysis: Periosteal circumference", "setting": "males, total dose 30 mg/kg bw", "result": 9.08, "unit": "mm"}, {"measurement": "Densitometry, metaphysis: Total density", "setting": "males, total dose 30 mg/kg bw", "result": 485, "unit": "mg/cm3"}, {"measurement": "Densitometry, metaphysis: Trabecular area", "setting": "males, total dose 30 mg/kg bw", "result": 8.63, "unit": "mm2"}, {"measurement": "Densitometry, metaphysis: Trabecular density", "setting": "males, total dose 30 mg/kg bw", "result": 165, "unit": "mg/cm3"}, {"measurement": "Densitometry, diaphysis: Cortical area", "setting": "males, total dose 100 mg/kg bw", "result": 4.06, "unit": "mm2"}, {"measurement": "Densitometry, diaphysis: Cortical density", "setting": "males, total dose 100 mg/kg bw", "result": 1300, "unit": "mg/cm3"}, {"measurement": "Densitometry, diaphysis: Cortical thickness", "setting": "males, total dose 100 mg/kg bw", "result": 0.55, "unit": "mm"}, {"measurement": "Densitometry, diaphysis: Endosteal circumference", "setting": "males, total dose 100 mg/kg bw", "result": 5.70, "unit": "mm"}, {"measurement": "Densitometry, diaphysis: Periosteal circumference", "setting": "males, total dose 100 mg/kg bw", "result": 9.14, "unit": "mm"}, {"measurement": "Densitometry, metaphysis: Total density", "setting": "males, total dose 100 mg/kg bw", "result": 458, "unit": "mg/cm3"}, {"measurement": "Densitometry, metaphysis: Trabecular area", "setting": "males, total dose 100 mg/kg bw", "result": 9.57, "unit": "mm2"}, {"measurement": "Densitometry, metaphysis: Trabecular density", "setting": "males, total dose 100 mg/kg bw", "result": 159, "unit": "mg/cm3"}, {"measurement": "Densitometry, diaphysis: Cortical area", "setting": "males, total dose 300 mg/kg bw", "result": 4.06, "unit": "mm2"}, {"measurement": "Densitometry, diaphysis: Cortical density", "setting": "males, total dose 300 mg/kg bw", "result": 1313, "unit": "mg/cm3"}, {"measurement": "Densitometry, diaphysis: Cortical thickness", "setting": "males, total dose 300 mg/kg bw", "result": 0.56, "unit": "mm"}, {"measurement": "Densitometry, diaphysis: Endosteal circumference", "setting": "males, total dose 300 mg/kg bw", "result": 5.53, "unit": "mm"}, {"measurement": "Densitometry, diaphysis: Periosteal circumference", "setting": "males, total dose 300 mg/kg bw", "result": 9.03, "unit": "mm"}, {"measurement": "Densitometry, metaphysis: Total density", "setting": "males, total dose 300 mg/kg bw", "result": 474, "unit": "mg/cm3"}, {"measurement": "Densitometry, metaphysis: Trabecular area", "setting": "males, total dose 300 mg/kg bw", "result": 8.85, "unit": "mm2"}, {"measurement": "Densitometry, metaphysis: Trabecular density", "setting": "males, total dose 300 mg/kg bw", "result": 150, "unit": "mg/cm3"}, {"measurement": "Densitometry, diaphysis: Cortical area", "setting": "[3]", "result": 3.88, "unit": "mm2"}, {"measurement": "Densitometry, diaphysis: Cortical density", "setting": "[3]", "result": 1306, "unit": "mg/cm3"}, {"measurement": "Densitometry, diaphysis: Cortical thickness", "setting": "[3]", "result": 0.54, "unit": "mm"}, {"measurement": "Densitometry, diaphysis: Endosteal circumference", "setting": "[3]", "result": 5.51, "unit": "mm"}, {"measurement": "Densitometry, diaphysis: Periosteal circumference", "setting": "[3]", "result": 8.90, "unit": "mm"}, {"measurement": "Densitometry, metaphysis: Total density", "setting": "[3]", "result": 468, "unit": "mg/cm3"}, {"measurement": "Densitometry, metaphysis: Trabecular area", "setting": "[3]", "result": 8.69, "unit": "mm2"}, {"measurement": "Densitometry, metaphysis: Trabecular density", "setting": "[3]", "result": 154, "unit": "mg/cm3"}, {"measurement": "Densitometry, diaphysis: Cortical area", "setting": "[4]", "result": 3.80, "unit": "mm2"}, {"measurement": "Densitometry, diaphysis: Cortical density", "setting": "[4]", "result": 1315, "unit": "mg/cm3"}, {"measurement": "Densitometry, diaphysis: Cortical thickness", "setting": "[4]", "result": 0.53, "unit": "mm"}, {"measurement": "Densitometry, diaphysis: Endosteal circumference", "setting": "[4]", "result": 5.54, "unit": "mm"}, {"measurement": "Densitometry, diaphysis: Periosteal circumference", "setting": "[4]", "result": 8.86, "unit": "mm"}, {"measurement": "Densitometry, metaphysis: Total density", "setting": "[4]", "result": 483, "unit": "mg/cm3"}, {"measurement": "Densitometry, metaphysis: Trabecular area", "setting": "[4]", "result": 8.64, "unit": "mm2"}, {"measurement": "Densitometry, metaphysis: Trabecular density", "setting": "[4]", "result": 164, "unit": "mg/cm3"}, {"measurement": "Dose response: Densitometry, diaphysis, Cortical area", "setting": "males, total doses 0-1700 mg/kg bw", "result": "D"}]}]}
